Data published in the NIST ThermoML archive (doi:10.1021/je3005479).
± gives the expanded uncertainty stated by the source.

Legend:
[1] = refractive index (Na D-line) (dimensionless); details: 83.07 kPa, Liquid, Standard Abbe refractometry
[2] = Liquid; for speed of sound / kinematic viscosity: 83.07 kPa; for speed of sound: Pulse-echo method; for mass density: 87.07 kPa, Vibrating tube method; for kinematic viscosity: Capillary tube (Ostwald / Ubbelohde) method

In the case of CC(C)C1CC(C(C)C)CC(C(C)C)C1 (stereo not drawn) [1,3,5-triisopropylcyclohexane], the refractive index ([1]; 293.15 K) is reported as 1.4571 ± 0.0009, the refractive index ([1]; 298.15 K) is reported as 1.4547 ± 0.0007 and the refractive index ([1]; 303.15 K) is reported as 1.4525 ± 0.0011. It also gave a speed of sound ([2]; 278.15 K) of 1405.7 ± 2.3 m/s, a mass density ([2]; 278.15 K) of 837.78 ± 0.39 kg/m3 and a speed of sound ([2]; 283.15 K) of 1385 ± 2.3 m/s. For the same compound, the mass density ([2]; 283.15 K) was 834.14 ± 0.39 kg/m3, the speed of sound ([2]; 288.15 K) was 1364.8 ± 2.2 m/s and the mass density ([2]; 288.15 K) was 830.52 ± 0.39 kg/m3. For the same compound, the kinematic viscosity ([2]; 293.15 K) was 7.66e-06 ± 1.3e-07 m2/s, the speed of sound ([2]; 293.15 K) was 1344.8 ± 2.2 m/s and the mass density ([2]; 293.15 K) was 826.89 ± 0.39 kg/m3. For the same compound, the kinematic viscosity ([2]; 298.15 K) was 6.27e-06 ± 1.1e-07 m2/s, the speed of sound ([2]; 298.15 K) was 1325 ± 2.2 m/s and the mass density ([2]; 298.15 K) was 823.27 ± 0.39 kg/m3. The kinematic viscosity ([2]; 303.15 K) was 5.22e-06 ± 8.4e-08 m2/s, the speed of sound ([2]; 303.15 K) was 1305.5 ± 2.2 m/s and the mass density ([2]; 303.15 K) was 819.64 ± 0.39 kg/m3. For the same compound, the kinematic viscosity ([2]; 308.15 K) was 4.43e-06 ± 6.8e-08 m2/s, the speed of sound ([2]; 308.15 K) was 1286.3 ± 2.2 m/s and the mass density ([2]; 308.15 K) was 816.02 ± 0.39 kg/m3. For the same compound, the kinematic viscosity ([2]; 313.15 K) was 3.81e-06 ± 5.6e-08 m2/s, the speed of sound ([2]; 313.15 K) was 1267.3 ± 2.2 m/s and the mass density ([2]; 313.15 K) was 812.39 ± 0.39 kg/m3. It also gave a kinematic viscosity ([2]; 318.15 K) of 3.32e-06 ± 4.9e-08 m2/s, a speed of sound ([2]; 318.15 K) of 1248.6 ± 2.1 m/s and a mass density ([2]; 318.15 K) of 808.76 ± 0.39 kg/m3. The kinematic viscosity ([2]; 323.15 K) was 2.9e-06 ± 3.7e-08 m2/s, the speed of sound ([2]; 323.15 K) was 1230 ± 2.1 m/s and the mass density ([2]; 323.15 K) was 805.12 ± 0.39 kg/m3. For the same compound, the kinematic viscosity ([2]; 328.15 K) was 2.58e-06 ± 3.1e-08 m2/s, the speed of sound ([2]; 328.15 K) was 1211.7 ± 2.1 m/s and the mass density ([2]; 328.15 K) was 801.49 ± 0.39 kg/m3. The kinematic viscosity ([2]; 333.15 K) was 2.32e-06 ± 2.7e-08 m2/s, the speed of sound ([2]; 333.15 K) was 1193.6 ± 2.1 m/s and the mass density ([2]; 333.15 K) was 797.85 ± 0.39 kg/m3. It also gave a kinematic viscosity ([2]; 338.15 K) of 2.09e-06 ± 2.3e-08 m2/s, a speed of sound ([2]; 338.15 K) of 1175.6 ± 2.1 m/s and a mass density ([2]; 338.15 K) of 794.21 ± 0.39 kg/m3. The kinematic viscosity ([2]; 343.15 K) was 1.9e-06 ± 2.1e-08 m2/s, the speed of sound ([2]; 343.15 K) was 1158 ± 2.1 m/s and the mass density ([2]; 343.15 K) was 790.57 ± 0.39 kg/m3. It also gave a kinematic viscosity ([2]; 348.15 K) of 1.74e-06 ± 1.9e-08 m2/s, a kinematic viscosity ([2]; 353.15 K) of 1.6e-06 ± 1.7e-08 m2/s and a kinematic viscosity ([2]; 358.15 K) of 1.48e-06 ± 1.5e-08 m2/s. The kinematic viscosity ([2]; 363.15 K) was 1.37e-06 ± 1.4e-08 m2/s, the kinematic viscosity ([2]; 368.15 K) was 1.28e-06 ± 1.3e-08 m2/s and the kinematic viscosity ([2]; 373.15 K) was 1.19e-06 ± 1.4e-08 m2/s.
